For one test, the system named is MOLM14. The test is described as follows: Proliferation assay B (spheroid assay) MOLM14. In kind it is cell-based, human. Conditions: MOLM14 cells, confluence at day 8, absolute IC50, read-out: (3b) Spheroid assay MOLM14 (IC50(μM)) Assay B. The procedure, abridged: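 IC50 derived from % effect on day-8 imaged confluence, scaled between DMSO-treated cells (high) and 1 μM staurosporine (low), using a variable-slope fit constrained 0-100%. Cells seeded as spheroids in ultra-low-attachment plates and exposed to compound for 8 days, 0.3% DMSO.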

In a further test the test system is MV-4-11. The test is described as follows: Proliferation assay B (spheroid assay) MV-4-11. It counts as cell-based, human. Conditions: MV-4-11 cells, confluence at day 8, absolute IC50, read-out: (3b) Spheroid assay MV-4--11 (IC50(μM)) Assay B. On the procedure:
3b) Proliferation Assay B
The anti-proliferative effect of menin/MLL protein/protein interaction inhibitor test compounds was assessed in human leukemia cell lines. The cell lines MV-4-11 and MOLM14 harbor MILL translocations and express the MILL fusion proteins MLL-AF4 and MLL-AF9, respectively, as well as the wildtype protein from the second allele. […] K562 was used as a control cell line containing two MLL wildtype alleles in order to exclude compounds that display general cytotoxic effects.
MV-4-11 and MOLM14 were cultured in RPMI-1640 (Sigma Aldrich) supplemented with 10% fetal bovine serum (HyClone), 2 mM L-glutamine (Sigma Aldrich) and 50 μg/ml gentamycin (Gibco). K562 were propagated in RPMI-1640 (Sigma Aldrich) supplemented with 20% fetal bovine serum (HyClone), 2 mM L-glutamine (Sigma Aldrich) and 50 μg/ml gentamycin (Gibco).
In order to assess the anti-proliferative effects, 1,500 MV-4-11, 300 MOLM14 cells or 750 K562 cells were seeded in 200 μl media per well in 96-well round bottom, ultra-low attachment plates (Costar, catalogue number 7007). Cell seeding numbers were chosen based on growth curves to ensure linear growth throughout the experiment. Test compounds were added at different concentrations and the DMSO content was normalized to 0.3%. Cells were incubated for 8 d at 37° C. and 5% CO2. Spheroid like growth was measured in real-time by live-cell imaging (IncuCyteZOOM, Essenbio, 4× objective) acquiring images at day 8. Confluence (%) as a measure of spheroid size was determined using an integrated analysis tool.
In order to determine the effect of the test compounds over time, the confluence in each well as a measure of spheroid size, was calculated. Confluence […] at the beginning of the experiment (t=0) was used as baseline for the calculation.
Absolute IC50 values were calculated as percent change in confluence as follows:
LC=Low Control: cells treated with 1 μM of the cytotoxic agent staurosporin
HC=High Control: Mean confluence (%) (DMSO treated cells) % Effect=100−(100*(Sample−LC)/(HC−LC))
To determine the IC50 a curve is fitted to the plot of % Effect vs Log 10 compound concentration using a sigmoidal fit with a variable slope and fixing the maximum to 100% and the minimum to 0%.

The target of a further test is T1, menin (Homo sapiens, UniProt O00255, T541A).
T1 construct: Menin (a.a. 1-610-6×his tag)
T1 sequence (O00255 with tags, fused parts or gaps T541A): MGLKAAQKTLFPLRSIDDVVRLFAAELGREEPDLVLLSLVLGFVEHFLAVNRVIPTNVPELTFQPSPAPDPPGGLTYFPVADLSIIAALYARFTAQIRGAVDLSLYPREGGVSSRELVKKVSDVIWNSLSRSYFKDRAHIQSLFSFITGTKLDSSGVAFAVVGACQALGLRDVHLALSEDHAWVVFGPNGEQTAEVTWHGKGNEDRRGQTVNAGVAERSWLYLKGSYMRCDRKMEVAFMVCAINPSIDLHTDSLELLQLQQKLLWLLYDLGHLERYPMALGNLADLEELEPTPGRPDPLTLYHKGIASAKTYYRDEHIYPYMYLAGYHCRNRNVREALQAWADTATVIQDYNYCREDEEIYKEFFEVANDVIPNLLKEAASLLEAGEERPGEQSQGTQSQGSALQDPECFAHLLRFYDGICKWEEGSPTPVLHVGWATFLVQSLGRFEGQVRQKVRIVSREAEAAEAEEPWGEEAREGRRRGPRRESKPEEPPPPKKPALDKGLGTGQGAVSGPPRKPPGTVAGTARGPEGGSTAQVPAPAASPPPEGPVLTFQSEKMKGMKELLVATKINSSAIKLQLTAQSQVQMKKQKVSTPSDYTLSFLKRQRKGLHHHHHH
The test is described as follows: Menin/MLL homogenous time-resolved fluorescence (HTRF) assay. Conditions: location 2; read-out: (2) location 2 Menin HTRF assay (IC50 (nM)). It counts as binding. The procedure, abridged:
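Displacement of 75 nM FITC-MBM1 from terbium-cryptate-labeled His-tagged menin 1-610 ([…]) was read as the 520/490 nm HTRF ratio. Compound (11-point, 3-fold series) got 5 min with menin before peptide, then 15 min at ambient; 0.5% DMSO, Tris pH 7.5.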

Each structure is given as a SMILES string. Where two headings read alike, the source gives them in different places.

As for `CNc1nc(N2CCC3(CC(Nc4ccc5[nH]c(=O)oc5c4)C3)C2)c2cc(CC(F)(F)F)sc2n1` (mixture of isomers) [Compound 399], the IC50 is above 3.75 µM in the test on MOLM14 (Homo sapiens, MOLM-14, 192 h); above 3.75 µM with MV-4-11 (Homo sapiens, MV4-11, 192 h); 26.4 nM at menin.

Regarding `Cc1nc(N2CCC3(CC(Nc4ccc(CC#N)cc4)C3)C2)c2cc(CC(F)(F)F)sc2n1` (mixture of isomers) [Compound 404], the IC50 with MOLM14 (Homo sapiens, MOLM-14, 192 h) was above 3.75 µM; in the test on MV-4-11 (Homo sapiens, MV4-11, 192 h), above 3.75 µM; on menin, 16.4 nM.

For the compound `CNC(=O)c1ccc(NC2CC3(CCN(c4ncnc5sc(CC(F)(F)F)cc45)C3)C2)cc1C#N` (mixture of isomers) [Compound 422], the IC50 was above 3.75 µM with MOLM14 (Homo sapiens, MOLM-14, 192 h); above 3.75 µM in the test on MV-4-11 (Homo sapiens, MV4-11, 192 h); 34.1 nM on menin.

As for `CN(C)CCNC(=O)c1ccc(NC2CC3(CCN(c4ncnc5sc(CC(F)(F)F)cc45)C3)C2)cc1` (racemic) [Compound 73], the IC50 in the test on MOLM14 (Homo sapiens, MOLM-14, 192 h) worked out at 1.21 µM; with MV-4-11 (Homo sapiens, MV4-11, 192 h), 0.3 µM; at menin it was 2.5 nM.

Take `CN1CCC(c2cc(NC3CC4(CCN(c5ncnc6sc(CC(F)(F)F)cc56)C4)C3)ccc2C#N)CC1` (racemic) [Compound 78]: the IC50 was determined as 0.48 µM in the test on MOLM14 (Homo sapiens, MOLM-14, 192 h); 0.33 µM with MV-4-11 (Homo sapiens, MV4-11, 192 h); 2.9 nM at menin.

Turning to `CC(C)(NC1CCC2(C1)CN(c1ncnc3sc(CC(F)(F)F)cc13)C2)c1ccccc1` (racemic) [Compound 276], the IC50 is above 3.75 µM with MOLM14 (Homo sapiens, MOLM-14, 192 h); 2.43 µM in the test with MV-4-11 (Homo sapiens, MV4-11, 192 h); 97.3 nM at menin.

Take `CNC(=O)c1ccc(NC2CC3(CCN(c4ncnc5sc(CC(F)(F)F)cc45)C3)C2)c(F)c1` (single isomer, unassigned) [Compound 67]: the IC50 turned out to be 0.62 µM in the test with MOLM14 (Homo sapiens, MOLM-14, 192 h); 0.14 µM in the test on MV-4-11 (Homo sapiens, MV4-11, 192 h); 1 nM on menin.

Take `CNC(=O)c1ccc(NC2CC3(CCN(c4ncnc5sc(CC(F)(F)F)cc45)C3)C2)nc1` (single isomer, unassigned) [Compound 72]: the IC50 is 0.5 µM in the test with MOLM14 (Homo sapiens, MOLM-14, 192 h); 0.23 µM in the test on MV-4-11 (Homo sapiens, MV4-11, 192 h); 2.8 nM at menin.

Consider `CN(C)CCNC(=O)c1ccc(NC2CC3(CCN(c4ncnc5sc(CC(F)(F)F)cc45)C3)C2)cc1` (single isomer, unassigned) [Compound 75], for which the IC50 with MOLM14 worked out at 0.46 µM; in the test with MV-4-11 (Homo sapiens, MV4-11, 192 h), 0.05 µM; on menin, 1.3 nM.

Take `CN1CCC(c2cc(NC3CC4(CCN(c5ncnc6sc(CC(F)(F)F)cc56)C4)C3)ccc2C#N)CC1` (single isomer, unassigned) [Compound 79]: the IC50 in the test on MOLM14 (Homo sapiens, MOLM-14, 192 h) stood at 0.59 µM; in the test on MV-4-11 (Homo sapiens, MV4-11, 192 h), 0.17 µM; on menin, 14.2 nM.

On to `O=C(NCCO)c1ccc(NC2CC3(CCN(c4ncnc5sc(CC(F)(F)F)cc45)C3)C2)cc1` (single isomer, unassigned) [Compound 84], for which the IC50 worked out at 0.56 µM in the test on MOLM14 (Homo sapiens, MOLM-14, 192 h); 0.06 µM in the test on MV-4-11 (Homo sapiens, MV4-11, 192 h); 2.3 nM at menin.

With `FC(F)(F)Cc1cc2c(N3CCC4(CC(Nc5cccnc5)C4)C3)ncnc2s1` (single isomer, unassigned) [Compound 153], the IC50 in the test on MOLM14 (Homo sapiens, MOLM-14, 192 h) was above 3.75 µM; with MV-4-11 (Homo sapiens, MV4-11, 192 h) it was 2.47 µM; on menin, 34.7 nM.

`CNC(=O)c1ccc(NC2CC3(CCN(c4ncnc5sc(CC(F)(F)F)cc45)C3)C2)c(F)c1F` (single isomer, unassigned) [Compound 226]: the IC50 in the test with MOLM14 (Homo sapiens, MOLM-14, 192 h) was 2.83 µM; with MV-4-11 (Homo sapiens, MV4-11, 192 h) it was 0.43 µM; at menin, 7.8 nM.

With `CN1CC=C(c2cc(NC3CC4(CCN(c5ncnc6sc(CC(F)(F)F)cc56)C4)C3)ccc2C(C)(C#N)C#N)CC1` (single isomer, unassigned) [Compound 247], the IC50 was determined as 0.71 µM in the test with MOLM14, 0.97 µM in the test on MV-4-11 and 30.2 nM at menin.

As for `CN(C)CCNC(=O)c1ccc(NC2CC3(CCN(c4ncnc5sc(CC(F)(F)F)cc45)C3)C2)nc1` (single isomer, unassigned) [Compound 254], the IC50 in the test with MOLM14 is 1.5 µM; in the test on MV-4-11 (Homo sapiens, MV4-11, 192 h), 0.17 µM; on menin it was 2.8 nM.

For the compound `Cc1nc(N2CCC3(CC(NCc4ccccc4)C3)C2)c2cc(CC(F)(F)F)sc2n1` (single isomer, unassigned) [Compound 262], the IC50 in the test on MOLM14 (Homo sapiens, MOLM-14, 192 h) was 0.81 µM; in the test on MV-4-11 (Homo sapiens, MV4-11, 192 h), 0.69 µM; on menin it was 15.1 nM.

With `COc1nc(N2CCC3(CC(Nc4ccccc4)C3)C2)c2cc(CC(F)(F)F)sc2n1` (single isomer, unassigned) [Compound 267], the IC50 was above 3.75 µM with MOLM14 (Homo sapiens, MOLM-14, 192 h); above 3.75 µM in the test with MV-4-11 (Homo sapiens, MV4-11, 192 h); 98.2 nM at menin.

In the case of `O=c1[nH]c2cc(N[C@@H]3CCC4(C3)CN(c3ncnc5sc(CC(F)(F)F)cc35)C4)ccc2o1` (single isomer, unassigned) [Compound 286], the IC50 in the test on MOLM14 (Homo sapiens, MOLM-14, 192 h) is above 3.75 µM; in the test with MV-4-11 (Homo sapiens, MV4-11, 192 h), 2.48 µM; at menin, 23.7 nM.

As for `O=c1[nH]c2cc(N[C@H]3CCC4(C3)CN(c3ncnc5sc(CC(F)(F)F)cc35)C4)ccc2o1` (single isomer, unassigned) [Compound 287], the IC50 in the test with MOLM14 (Homo sapiens, MOLM-14, 192 h) is above 3.75 µM; in the test on MV-4-11 (Homo sapiens, MV4-11, 192 h), 3.37 µM; at menin, 22.8 nM.

For the compound `O=C(c1ccc(NC2CC3(CCN(c4ncnc5sc(CC(F)(F)F)cc45)C3)C2)cc1)N1CCOCC1` (single isomer, unassigned) [Compound 334], the IC50 was above 3.75 µM in the test on MOLM14, above 3.75 µM with MV-4-11 and 256 nM at menin.

Take `O=C(c1ccc(NC2CC3(CCN(c4ncnc5sc(CC(F)(F)F)cc45)C3)C2)cc1)N1CCOCC1` (single isomer, unassigned) [Compound 335]: the IC50 with MOLM14 was 1.55 µM; in the test on MV-4-11 it was 0.46 µM; on menin, 5.2 nM.

On to `CS(=O)(=O)NC(=O)c1ccc(NC2CC3(CCN(c4ncnc5sc(CC(F)(F)F)cc45)C3)C2)cc1` (single isomer, unassigned) [Compound 361], for which the IC50 was above 3.75 µM in the test with MOLM14, above 3.75 µM in the test with MV-4-11 and 61.7 nM on menin.

`CS(=O)(=O)NC(=O)c1ccc(NC2CC3(CCN(c4ncnc5sc(CC(F)(F)F)cc45)C3)C2)cc1` (single isomer, unassigned) [Compound 362]: the IC50 is above 3.75 µM in the test with MOLM14 (Homo sapiens, MOLM-14, 192 h); above 3.75 µM in the test on MV-4-11 (Homo sapiens, MV4-11, 192 h); 836 nM on menin.

Consider `COC[C@@H]1CN(C(=O)c2ccc(NC3CC4(CCN(c5ncnc6sc(CC(F)(F)F)cc56)C4)C3)cc2)CCO1` (single isomer, unassigned) [Compound 410], for which the IC50 in the test with MOLM14 (Homo sapiens, MOLM-14, 192 h) is above 3.75 µM; in the test with MV-4-11 (Homo sapiens, MV4-11, 192 h), above 3.75 µM; at menin it was 68.7 nM.

As to `O=C(c1ccc(NC2CC3(CCN(c4ncnc5sc(CC(F)(F)F)cc45)C3)C2)cc1)N1CC2(COC2)C1` (single isomer, unassigned) [Compound 413], the IC50 with MOLM14 (Homo sapiens, MOLM-14, 192 h) was above 3.75 µM; in the test on MV-4-11 (Homo sapiens, MV4-11, 192 h) it was above 3.75 µM; on menin it was 2290 nM.

Source of the values: patent US11396517B1, “Exo-aza spiro inhibitors of menin-MLL interaction” (Janssen Pharmaceutica NV, priority 2017, dated 2022).
